# Test results published in paper PMC5547389, “Structure-activity relationships and molecular docking studies of chromene and chromene based azo chromophores: A novel series of potent antimicrobial and anticancer agents” (EXCLI Journal, 2017).
# System: Escherichia coli (RCMB 010052)
# Assay: Well diffusion assay (inhibition zone)
# Format: cell-based
# Details: RCMB010052, 5 mg/mL in DMSO, Gm-ve, read-out: Inhibition Zone (IZ) diameter, E.C
# How it was run: (§1)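 Agar well diffusion with 10 mm wells, nutrient agar for bacteria and malt extract agar for fungi. Plates were incubated 24-48 h at 37 °C for bacteria or 28 °C for fungi. Inhibition zone diameters were measured in mm, in triplicate.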
row,Structure (SMILES),zone of inhibition at 5000 µg/mL [mm]
1,"N#CC1=C(N)Oc2c(N)cc3ccccc3c2C1c1ccc(Cl)cc1 (centres unmarked) [4b, 3,5-diamino-1-(4-chlorophenyl)-1H-benzo[f]chromene-2-carbonitrile]",18.3
2,"Cc1ccc(C2C(C#N)=C(N)Oc3c(N)cc4ccccc4c32)cc1 (centres unmarked) [4c, 3,5-diamino-1-(p-tolyl)-1H-benzo[f]chromene-2-carbonitrile]",15.3

# System: Aspergillus fumigatus (RCMB 02568)
# Assay: Well diffusion assay (inhibition zone)
# Format: cell-based
# Details: RCMB02568, 5 mg/mL in DMSO, fungi, read-out: Inhibition Zone (IZ) diameter, A.F
# How it was run: as §1
row,Structure (SMILES),zone of inhibition at 5000 µg/mL [mm]
1,"N#CC1=C(N)Oc2c(N)cc3ccccc3c2C1c1ccc(Cl)cc1 (centres unmarked) [4b, 3,5-diamino-1-(4-chlorophenyl)-1H-benzo[f]chromene-2-carbonitrile]",24.3
2,"Cc1ccc(C2C(C#N)=C(N)Oc3c(N)cc4ccccc4c32)cc1 (centres unmarked) [4c, 3,5-diamino-1-(p-tolyl)-1H-benzo[f]chromene-2-carbonitrile]",20.2

# System: Syncephalastrum racemosum (RCMB 05922)
# Assay: Well diffusion assay (inhibition zone)
# Format: cell-based
# Details: RCMB05922, 5 mg/mL in DMSO, fungi, read-out: Inhibition Zone (IZ) diameter, S.R
# How it was run: as §1
row,Structure (SMILES),zone of inhibition at 5000 µg/mL [mm]
1,"N#CC1=C(N)Oc2c(N)cc3ccccc3c2C1c1ccc(Cl)cc1 (centres unmarked) [4b, 3,5-diamino-1-(4-chlorophenyl)-1H-benzo[f]chromene-2-carbonitrile]",17.6
2,"Cc1ccc(C2C(C#N)=C(N)Oc3c(N)cc4ccccc4c32)cc1 (centres unmarked) [4c, 3,5-diamino-1-(p-tolyl)-1H-benzo[f]chromene-2-carbonitrile]",16.9

# System: Streptococcus pneumoniae (RCMB 010010)
# Assay: Well diffusion assay (inhibition zone)
# Format: cell-based
# Details: RCMB010010, 5 mg/mL in DMSO, Gm+ve, read-out: Inhibition Zone (IZ) diameter, S.P
# How it was run: as §1
row,Structure (SMILES),zone of inhibition at 5000 µg/mL [mm]
1,"N#CC1=C(N)Oc2c(N)cc3ccccc3c2C1c1ccc(Cl)cc1 (centres unmarked) [4b, 3,5-diamino-1-(4-chlorophenyl)-1H-benzo[f]chromene-2-carbonitrile]",22.6
2,"Cc1ccc(C2C(C#N)=C(N)Oc3c(N)cc4ccccc4c32)cc1 (centres unmarked) [4c, 3,5-diamino-1-(p-tolyl)-1H-benzo[f]chromene-2-carbonitrile]",18.2

# System: Bacillus subtilis (RCMB 010067)
# Assay: Well diffusion assay (inhibition zone)
# Format: cell-based
# Details: RCMB010067, 5 mg/mL in DMSO, Gm+ve, read-out: Inhibition Zone (IZ) diameter, B.S
# How it was run: as §1
row,Structure (SMILES),zone of inhibition at 5000 µg/mL [mm]
1,"N#CC1=C(N)Oc2c(N)cc3ccccc3c2C1c1ccc(Cl)cc1 (centres unmarked) [4b, 3,5-diamino-1-(4-chlorophenyl)-1H-benzo[f]chromene-2-carbonitrile]",33.7
2,"Cc1ccc(C2C(C#N)=C(N)Oc3c(N)cc4ccccc4c32)cc1 (centres unmarked) [4c, 3,5-diamino-1-(p-tolyl)-1H-benzo[f]chromene-2-carbonitrile]",19.4

# System: Geotricum candidum (RCMB 05097)
# Assay: Well diffusion assay (inhibition zone)
# Format: cell-based
# Details: 5 mg/mL in DMSO; fungi; read-out: Inhibition Zone (IZ) diameter, G.C
# How it was run: as §1
row,Structure (SMILES),zone of inhibition at 5000 µg/mL [mm]
1,"N#CC1=C(N)Oc2c(N)cc3ccccc3c2C1c1ccc(Cl)cc1 (centres unmarked) [4b, 3,5-diamino-1-(4-chlorophenyl)-1H-benzo[f]chromene-2-carbonitrile]",26.9
2,"Cc1ccc(C2C(C#N)=C(N)Oc3c(N)cc4ccccc4c32)cc1 (centres unmarked) [4c, 3,5-diamino-1-(p-tolyl)-1H-benzo[f]chromene-2-carbonitrile]",18.6

# System: not given
# Assay: not given
# Details: not given
row,melting point [°C],Structure (SMILES)
1,187,"N#CC1=C(N)Oc2c(N)cc3ccccc3c2C1c1ccc(Cl)cc1 (centres unmarked) [4b, 3,5-diamino-1-(4-chlorophenyl)-1H-benzo[f]chromene-2-carbonitrile]"
2,180,"Cc1ccc(C2C(C#N)=C(N)Oc3c(N)cc4ccccc4c32)cc1 (centres unmarked) [4c, 3,5-diamino-1-(p-tolyl)-1H-benzo[f]chromene-2-carbonitrile]"

# System: Escherichia coli (RCMB 010052)
# Assay: MIC by serial dilution method
# Format: cell-based
# Details: RCMB010052, Gm-ve, read-out: Minimum inhibitory concentration, MIC, E.C
# How it was run: (§2)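 Step one: agar diffusion well assay for antibacterial and antifungal activity. Step two: serial dilution to obtain […] minimum inhibitory concentrations, run alongside ampicillin, ciprofloxacin, gentamicin and amphotericin B as positive controls.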
row,MIC [µg/mL],Structure (SMILES)
1,15.6,"N#CC1=C(N)Oc2c(N)cc3ccccc3c2C1c1ccc(Cl)cc1 (centres unmarked) [4b, 3,5-diamino-1-(4-chlorophenyl)-1H-benzo[f]chromene-2-carbonitrile]"
2,62.5,"Cc1ccc(C2C(C#N)=C(N)Oc3c(N)cc4ccccc4c32)cc1 (centres unmarked) [4c, 3,5-diamino-1-(p-tolyl)-1H-benzo[f]chromene-2-carbonitrile]"

# System: Aspergillus fumigatus (RCMB 02568)
# Assay: MIC by serial dilution method
# Format: cell-based
# Details: RCMB02568, fungi, read-out: Minimum inhibitory concentration, MIC, A.F
# How it was run: as §2
row,MIC [µg/mL],Structure (SMILES)
1,0.24,"N#CC1=C(N)Oc2c(N)cc3ccccc3c2C1c1ccc(Cl)cc1 (centres unmarked) [4b, 3,5-diamino-1-(4-chlorophenyl)-1H-benzo[f]chromene-2-carbonitrile]"
2,3.9,"Cc1ccc(C2C(C#N)=C(N)Oc3c(N)cc4ccccc4c32)cc1 (centres unmarked) [4c, 3,5-diamino-1-(p-tolyl)-1H-benzo[f]chromene-2-carbonitrile]"

# System: Syncephalastrum racemosum (RCMB 05922)
# Assay: MIC by serial dilution method
# Format: cell-based
# Details: RCMB05922, fungi, read-out: Minimum inhibitory concentration, MIC, S.R
# How it was run: as §2
row,MIC [µg/mL],Structure (SMILES)
1,31.2,"N#CC1=C(N)Oc2c(N)cc3ccccc3c2C1c1ccc(Cl)cc1 (centres unmarked) [4b, 3,5-diamino-1-(4-chlorophenyl)-1H-benzo[f]chromene-2-carbonitrile]"
2,31.2,"Cc1ccc(C2C(C#N)=C(N)Oc3c(N)cc4ccccc4c32)cc1 (centres unmarked) [4c, 3,5-diamino-1-(p-tolyl)-1H-benzo[f]chromene-2-carbonitrile]"

# System: Streptococcus pneumoniae (RCMB 010010)
# Assay: MIC by serial dilution method
# Format: cell-based
# Details: RCMB010010, Gm+ve, read-out: Minimum inhibitory concentration, MIC, S.P
# How it was run: as §2
row,MIC [µg/mL],Structure (SMILES)
1,0.49,"N#CC1=C(N)Oc2c(N)cc3ccccc3c2C1c1ccc(Cl)cc1 (centres unmarked) [4b, 3,5-diamino-1-(4-chlorophenyl)-1H-benzo[f]chromene-2-carbonitrile]"
2,7.81,"Cc1ccc(C2C(C#N)=C(N)Oc3c(N)cc4ccccc4c32)cc1 (centres unmarked) [4c, 3,5-diamino-1-(p-tolyl)-1H-benzo[f]chromene-2-carbonitrile]"

# System: Bacillus subtilis (RCMB 010067)
# Assay: MIC by serial dilution method
# Format: cell-based
# Details: RCMB010067, Gm+ve, read-out: Minimum inhibitory concentration, MIC, B.S
# How it was run: as §2
row,MIC [µg/mL],Structure (SMILES)
1,0.007,"N#CC1=C(N)Oc2c(N)cc3ccccc3c2C1c1ccc(Cl)cc1 (centres unmarked) [4b, 3,5-diamino-1-(4-chlorophenyl)-1H-benzo[f]chromene-2-carbonitrile]"
2,7.81,"Cc1ccc(C2C(C#N)=C(N)Oc3c(N)cc4ccccc4c32)cc1 (centres unmarked) [4c, 3,5-diamino-1-(p-tolyl)-1H-benzo[f]chromene-2-carbonitrile]"

# System: Geotricum candidum (RCMB 05097)
# Assay: MIC by serial dilution method
# Format: cell-based
# Details: fungi; read-out: Minimum inhibitory concentration, MIC, G.C
# How it was run: as §2
row,MIC [µg/mL],Structure (SMILES)
1,0.03,"N#CC1=C(N)Oc2c(N)cc3ccccc3c2C1c1ccc(Cl)cc1 (centres unmarked) [4b, 3,5-diamino-1-(4-chlorophenyl)-1H-benzo[f]chromene-2-carbonitrile]"
2,7.81,"Cc1ccc(C2C(C#N)=C(N)Oc3c(N)cc4ccccc4c32)cc1 (centres unmarked) [4c, 3,5-diamino-1-(p-tolyl)-1H-benzo[f]chromene-2-carbonitrile]"
